According to PMC10590419, “Structural and mechanistic insights into the inhibition of respiratory syncytial virus polymerase by a non-nucleoside inhibitor” (Communications Biology, 2023):
Several values for one entry are separate records, joined by “and”; a condition that tells them apart may be missing. Equal values may be shown once.

Assays:
[1] = molecular target: RSV MTase-CTD protein (Human respiratory syncytial virus A, UniProt P28887); test: Methyltransferase filter-binding assay; type: biochemical; conditions: for MTase activity, RNA+compound+RSV MTase-CTD, CPM: three technical replicates
Chain of RSV MTase-CTD protein (P28887 1755-2165): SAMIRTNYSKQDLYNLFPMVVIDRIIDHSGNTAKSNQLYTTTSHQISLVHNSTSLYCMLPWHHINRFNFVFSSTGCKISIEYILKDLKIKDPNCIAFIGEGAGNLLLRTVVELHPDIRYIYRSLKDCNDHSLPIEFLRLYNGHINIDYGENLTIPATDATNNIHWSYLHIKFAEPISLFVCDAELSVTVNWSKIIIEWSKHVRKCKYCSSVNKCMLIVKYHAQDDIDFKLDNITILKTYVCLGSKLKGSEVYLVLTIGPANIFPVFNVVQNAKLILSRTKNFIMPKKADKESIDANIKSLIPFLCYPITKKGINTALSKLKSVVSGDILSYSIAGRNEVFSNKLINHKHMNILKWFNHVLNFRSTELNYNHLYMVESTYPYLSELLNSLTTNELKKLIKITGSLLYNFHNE

[2] = test system: PIV-1 (recombinant Washington/20993/1964-derived strain encoding GFP); type: cell-based, parainfluenza virus type 1
[3] = test system: RSV A clinical isolates and laboratory strains; test: Inhibition of RSV-A clinical isolates and laboratory strains, RT-qPCR, HeLa; type: cell-based; conditions: human respiratory syncytial virus, 10 strains, read-out: Median EC50
Experimental: Then, 100 µL of a HeLa cell suspension (5 × 10^4 cells/mL) in culture medium was added to each well. […] After 3 days of incubation, the supernatant was removed from wells. Plates were washed twice with ice-cold PBS (100 µL/well), and were then sealed and stored overnight at −80 °C. Next, 50 µL of lysis solution supplemented with DNAse was added to the plates and incubated for 5 min followed by the addition of 5 µL stop solution (Ambion Cell-to-CT bulk lysis reagent buffer). […] Roche) for cDNA synthesis. Reverse transcription was performed at 42 °C for 30 min, followed by denaturation at 95 °C for 5 min. […] The reaction consisted of a denaturation step (95 °C for 600 s), 45 cycles of denaturation (95 °C for 15 s) and annealing/elongation (60 °C for 60 s), and a step of cooling (40 °C for 10 s).

[4] = molecular target: RSV L+P complex (Human respiratory syncytial virus A, UniProt P28887); test: Surface plasmon resonance assay; type: binding, Human RSV (strain A2); conditions: SPR, 37°C
Chain of RSV L+P complex (P03421 whole entry): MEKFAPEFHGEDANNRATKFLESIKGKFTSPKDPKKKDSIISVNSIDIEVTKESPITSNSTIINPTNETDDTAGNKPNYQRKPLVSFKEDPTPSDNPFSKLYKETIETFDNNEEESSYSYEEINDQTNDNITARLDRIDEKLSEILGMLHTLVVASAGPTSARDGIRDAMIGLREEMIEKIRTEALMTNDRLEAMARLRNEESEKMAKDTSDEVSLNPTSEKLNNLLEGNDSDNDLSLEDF
Chain of RSV L+P complex (P28887 whole entry): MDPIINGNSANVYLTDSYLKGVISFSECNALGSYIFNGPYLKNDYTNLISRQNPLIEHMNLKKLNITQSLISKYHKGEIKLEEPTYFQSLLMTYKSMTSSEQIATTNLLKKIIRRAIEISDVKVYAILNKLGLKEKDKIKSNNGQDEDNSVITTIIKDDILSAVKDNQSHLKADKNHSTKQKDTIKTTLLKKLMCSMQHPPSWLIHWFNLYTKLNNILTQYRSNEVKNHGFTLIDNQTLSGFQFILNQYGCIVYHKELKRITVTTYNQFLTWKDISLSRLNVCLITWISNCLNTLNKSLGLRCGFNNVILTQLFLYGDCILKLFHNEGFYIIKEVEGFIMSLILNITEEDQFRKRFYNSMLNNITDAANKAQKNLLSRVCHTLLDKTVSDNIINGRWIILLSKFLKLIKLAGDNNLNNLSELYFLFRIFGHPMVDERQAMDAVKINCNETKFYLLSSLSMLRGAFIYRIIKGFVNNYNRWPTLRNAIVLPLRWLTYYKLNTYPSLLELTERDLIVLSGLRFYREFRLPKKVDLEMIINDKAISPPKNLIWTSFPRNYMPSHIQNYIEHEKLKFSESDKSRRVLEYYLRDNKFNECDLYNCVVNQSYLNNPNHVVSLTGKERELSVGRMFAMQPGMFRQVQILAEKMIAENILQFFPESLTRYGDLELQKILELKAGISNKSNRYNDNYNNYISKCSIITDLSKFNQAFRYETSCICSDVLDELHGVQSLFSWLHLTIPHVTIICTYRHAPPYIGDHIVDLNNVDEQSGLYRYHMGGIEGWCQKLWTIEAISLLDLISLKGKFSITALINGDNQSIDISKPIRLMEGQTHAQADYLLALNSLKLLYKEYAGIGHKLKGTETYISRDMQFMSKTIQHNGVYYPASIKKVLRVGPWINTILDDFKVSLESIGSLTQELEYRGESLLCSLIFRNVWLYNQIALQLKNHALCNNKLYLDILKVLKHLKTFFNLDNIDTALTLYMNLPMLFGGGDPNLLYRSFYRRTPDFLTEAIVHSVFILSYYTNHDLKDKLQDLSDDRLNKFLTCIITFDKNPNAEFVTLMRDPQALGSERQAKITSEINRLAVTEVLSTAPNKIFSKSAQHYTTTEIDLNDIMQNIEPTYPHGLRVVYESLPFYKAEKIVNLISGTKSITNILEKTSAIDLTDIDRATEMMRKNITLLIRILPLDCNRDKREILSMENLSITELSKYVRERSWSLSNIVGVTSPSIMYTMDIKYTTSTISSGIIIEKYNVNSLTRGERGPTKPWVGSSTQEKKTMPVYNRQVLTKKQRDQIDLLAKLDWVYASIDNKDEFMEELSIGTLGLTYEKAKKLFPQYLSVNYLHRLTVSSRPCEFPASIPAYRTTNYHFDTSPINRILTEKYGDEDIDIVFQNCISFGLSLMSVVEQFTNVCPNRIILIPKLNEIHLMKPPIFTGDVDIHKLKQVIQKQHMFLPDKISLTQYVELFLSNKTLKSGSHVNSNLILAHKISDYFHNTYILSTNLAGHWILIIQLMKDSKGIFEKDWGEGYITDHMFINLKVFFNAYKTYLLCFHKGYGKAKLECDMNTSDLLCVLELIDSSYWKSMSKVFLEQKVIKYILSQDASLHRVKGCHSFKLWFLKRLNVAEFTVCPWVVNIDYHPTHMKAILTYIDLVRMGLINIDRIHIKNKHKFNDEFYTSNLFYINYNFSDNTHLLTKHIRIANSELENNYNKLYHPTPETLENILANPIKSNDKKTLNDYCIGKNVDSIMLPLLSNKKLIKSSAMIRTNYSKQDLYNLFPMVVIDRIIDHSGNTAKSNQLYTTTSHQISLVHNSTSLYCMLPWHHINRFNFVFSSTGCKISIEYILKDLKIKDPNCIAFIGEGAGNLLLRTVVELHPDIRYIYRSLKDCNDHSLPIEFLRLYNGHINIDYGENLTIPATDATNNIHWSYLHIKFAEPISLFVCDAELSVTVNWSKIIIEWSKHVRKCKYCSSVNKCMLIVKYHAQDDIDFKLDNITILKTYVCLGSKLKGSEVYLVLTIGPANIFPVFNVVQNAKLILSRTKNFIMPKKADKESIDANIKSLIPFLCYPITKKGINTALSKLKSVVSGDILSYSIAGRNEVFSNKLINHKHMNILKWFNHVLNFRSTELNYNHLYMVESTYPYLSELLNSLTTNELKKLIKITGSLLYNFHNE

[5] = test system: HMPV (recombinant CAN97-83-derived strain encoding GFP); test: microbe, parasite or virus in culture; type: cell-based; conditions: human metapneumovirus, LLC-MK2

SMILES: COc1cc(C(=O)NC[C@](O)(c2cc(C(C)(C)O)c(F)c(-c3ccc(F)cc3)n2)C(F)(F)F)cc2cc(C)nnc12 [JNJ-8003]
- MTase activity, RNA+compound+RSV MTase-CTD, CPM ([1]; 50 uM): 32508 CPM and 30594 CPM and 30169 CPM
- MTase activity, RNA+compound+RSV MTase-CTD, CPM ([1]; 200 uM): 26082 CPM and 22767 CPM and 27924 CPM
- impact on MTase activity (in words) ([1]; recombinant MTase-CTD fragment): no impact
- inhibition (in words) [2]: negligible inhibition
- EC50 [3]: 0.18 nM
- off-rate [4]: 0.0000181 s⁻¹
- on-rate [4]: 2.16e+06 M⁻¹ s⁻¹
- EC50 [5]: 88 nM
